Common to all, as to format: biochemical
The target in one test is T1, Gox1615 (Gluconobacter oxydans, UniProt Q5FQJ0).
T1 sequence (Q5FQJ0 1-332): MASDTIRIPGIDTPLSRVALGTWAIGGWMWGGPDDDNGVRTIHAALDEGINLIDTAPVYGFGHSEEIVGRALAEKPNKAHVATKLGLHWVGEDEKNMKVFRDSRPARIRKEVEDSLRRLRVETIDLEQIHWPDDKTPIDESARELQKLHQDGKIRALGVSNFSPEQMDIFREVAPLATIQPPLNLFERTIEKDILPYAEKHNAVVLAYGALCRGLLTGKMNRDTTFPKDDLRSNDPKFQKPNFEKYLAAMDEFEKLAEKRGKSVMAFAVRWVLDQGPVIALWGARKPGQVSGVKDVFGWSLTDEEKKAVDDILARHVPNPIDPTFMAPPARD
The test can be described thus: Enzyme activity assay (rate of NAD(P)H decrease at 340 nm), Gox1615. The following applies: Tab. 5, Gox1615; cofactor NADPH; 10 mM substrate, pH 7.0, 30 °C. The method, then:
(§1) Measurment of enzyme activity: NADPH-dependent alpha-ketocarbonyl reductases were assayed by a routine method used for NAD(P)-linked enzymes by recording the rate of decrease of NADPH at 340 nm (ε = 6.22 mM^-1 x cm^-1)) with substrates at 30 °C. The reaction mixture (1 ml) for reduction of alpha-ketocarbonyl substrates contained 10 mM substrate, 40 mM potassium phosphate buffer pH 7.0, 0.025 mM NAD(P)H , and the enzyme. Reactions were induced by addition of enzyme or substrate. One unit of enzyme activity was defined as the amount of enzyme catalyzing the conversion of 1 µmol of pyridine nucleotide per min at 30 °C.
(§2) NADPH-dependent α-ketocarbonyl reductases were assayed by a routine method used for NAD(P)-linked enzymes by recording the rate of decrease of NADPH at 340 nm (ε = 6.22 mM^-1.cm^-1) with substrates at 30 °C. The reaction mixture (1 ml) for reduction of alpha-ketocarbonyl substrates contained 10 mM substrate, 40 mM potassium phosphate buffer pH 7.0, 0.025 mM NADPH , and the enzyme. Reactions were induced by addition of enzyme or substrate. One unit of enzyme activity was defined as the amount of enzyme catalyzing the conversion of 1 µmol of pyridine nucleotide per min at 30 °C.
(§3) For each enzyme (Gox0313, Gox0502, Gox0644, Gox0646, Gox1615, Gox2107, and Gox2684 respectively), fresh enzyme preparations were used to validate the substrate spectrum and the kinetic activity. […] Purified NAD(P)-dependent oxidoreductases were assayed at 30 °C by a routine method used for NAD(P)-linked enzymes by recording the rate of decrease of NAD(P)H at 340 nm (ε = […]) with substrates capable of reduction reactions. The standard reaction mixture (1 ml) for the reduction reactions of substrates contained 10 mM substrate, 40 mM potassium phosphate buffer (K-phosphate buffer) pH 7.0, 0.05 mM NAD(P)H, and the enzyme unless otherwise noted. Reactions were induced by addition of enzyme or substrate. One unit of enzyme activity was defined as the amount of enzyme catalyzing the conversion of 1 µmol of pyridine nucleotide per min at 30 °C. Measurement of the protein content was performed by the method of Bradford in Anal. Biochem. 72:248-254 (1976). Table 3: Summary of enzymatic activities with α-diketones, α-ketoaldehydes and /or α-ketoesters

A further test addresses T2, Gox0313 (Gluconobacter oxydans, UniProt Q5FU50).
T2 sequence (Q5FU50 1-343): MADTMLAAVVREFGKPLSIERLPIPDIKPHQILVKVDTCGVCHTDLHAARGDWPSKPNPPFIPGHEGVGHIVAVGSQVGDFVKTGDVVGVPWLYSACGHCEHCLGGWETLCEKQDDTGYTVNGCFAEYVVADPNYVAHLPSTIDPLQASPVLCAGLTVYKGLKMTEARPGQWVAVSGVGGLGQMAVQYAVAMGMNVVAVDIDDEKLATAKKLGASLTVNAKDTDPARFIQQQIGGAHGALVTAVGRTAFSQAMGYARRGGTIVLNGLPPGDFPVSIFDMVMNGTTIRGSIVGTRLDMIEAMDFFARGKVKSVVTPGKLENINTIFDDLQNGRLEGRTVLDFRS
The test can be described thus: Enzyme activity assay (rate of NAD(P)H decrease at 340 nm), Gox0313. Conditions: Tab. 6, Gox0313; substrate reduction, cofactor NADH; 10 mM substrate, pH 7.0, 30 °C. The procedure:
as §1, §2, §3

For another test, the target named is T3, Gox0502 (Gluconobacter oxydans, UniProt Q5FTL6).
T3 sequence (Q5FTL6 1-361): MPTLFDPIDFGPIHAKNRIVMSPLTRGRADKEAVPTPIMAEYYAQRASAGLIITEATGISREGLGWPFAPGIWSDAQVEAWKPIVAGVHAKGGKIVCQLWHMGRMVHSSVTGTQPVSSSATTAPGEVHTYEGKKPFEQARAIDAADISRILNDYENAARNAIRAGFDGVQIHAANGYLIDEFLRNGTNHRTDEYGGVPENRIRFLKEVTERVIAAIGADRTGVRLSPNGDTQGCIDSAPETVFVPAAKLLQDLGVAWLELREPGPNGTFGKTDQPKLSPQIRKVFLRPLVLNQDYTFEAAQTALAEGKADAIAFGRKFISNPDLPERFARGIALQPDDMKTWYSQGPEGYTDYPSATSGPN
The test can be described thus: Enzyme activity assay (rate of NAD(P)H decrease at 340 nm), Gox0502. On the set-up: Strep-tag II (N); made in house; host or cells: E. coli BL21 or E. coli DH5α (pASK-IBA5). The following applies: Tab. 7, Gox0502; cofactor NADPH; 10 mM substrate, pH 7.0, 30 °C. The method, then: as §1, §2, §3

Another test has as its target Gox2107 (Gluconobacter oxydans, UniProt Q5FP53). Description: Enzyme activity assay (rate of NAD(P)H decrease at 340 nm), Gox2107. The following applies: for Specific Activity: Tab. 7, Gox2107, cofactor NADPH, 10 mM substrate, pH 7.0, 30 °C. The method, then:
as §1, §2, §3

A further test addresses T4, Gox2684 (Gluconobacter oxydans, UniProt Q5HXK5).
T4 sequence (Q5HXK5 1-357): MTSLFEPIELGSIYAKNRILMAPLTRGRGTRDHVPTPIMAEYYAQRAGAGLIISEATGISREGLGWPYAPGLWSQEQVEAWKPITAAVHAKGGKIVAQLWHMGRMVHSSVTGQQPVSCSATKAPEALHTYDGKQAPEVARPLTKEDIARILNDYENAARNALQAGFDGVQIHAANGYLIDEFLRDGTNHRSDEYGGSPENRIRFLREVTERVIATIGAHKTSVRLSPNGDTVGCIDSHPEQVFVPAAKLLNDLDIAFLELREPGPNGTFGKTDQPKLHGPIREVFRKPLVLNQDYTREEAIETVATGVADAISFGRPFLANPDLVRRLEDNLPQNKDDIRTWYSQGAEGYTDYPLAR
Description: Enzyme activity assay (rate of NAD(P)H decrease at 340 nm), Gox2684. Conditions: Tab. 8, GOX2684; cofactor NADPH; 10 mM substrate, pH 7.0, 30 °C. The procedure: as §1, §2, §3

In the next test the target is Gox0644 (Gluconobacter oxydans, UniProt Q5FT75). Description: Enzyme activity assay (rate of NAD(P)H decrease at 340 nm), Gox0644. The following applies: for reduction by Gox0644 (result in words): NADPH; for Specific Activity: Tab. 4, Gox0644, cofactor NADPH, 10 mM substrate, pH 7.0, 30 °C. The method, then: (§4) Reactions were induced by addition of enzyme or substrate. One unit of enzyme activity was defined as the amount of enzyme catalyzing the conversion of 1 µmol of pyridine nucleotide per min at 30 °C.
as §4
For each enzyme (Gox0313, Gox0502, Gox0644, Gox0646, Gox1615, Gox2107, and Gox2684 respectively), fresh enzyme preparations were used to validate the substrate spectrum and the kinetic activity. […] Reactions were induced by addition of enzyme or substrate. One unit of enzyme activity was defined as the amount of enzyme catalyzing the conversion of 1 µmol of pyridine nucleotide per min at 30 °C. […] Table 3: Summary of enzymatic activities with α-diketones, α-ketoaldehydes and /or α-ketoesters

Bounds are passed on as bounds.

The values that follow come from patent EP2119770B1, “Production of alpha-oxyfunctionalized carbonyl compounds” (priority 2008, dated 2009).

With `O=CC(O)CO` (racemic) [DL-glyceraldehyde], the “Specific Activity” value was 19 U/mg at Gox1615 and 1.2 U/mg on Gox0313.

As for `C=CC(=O)CC` [1-pentene-3-one], the “Specific Activity” value stood at 6.1 U/mg on Gox0502 and 14.0 U/mg at Gox2107.

On to `O=C1C=CCCC1` [2-cyclohexene-1-one], for which the entries for the “Specific Activity” value at Gox0502 and on Gox2107 were 9.8 U/mg and 3.3 U/mg, respectively.

With `O=C1C=C(O)C(=O)c2ccccc21` [2-hydroxy-1,4-naphthoquinone], at Gox2684, the “Specific Activities” value was found to be 0.7 U/mg. Also, the “Specific Activity” value at Gox0502 was found to be 0.75 U/mg; at Gox2107, 16.04 U/mg.

In the case of `CCCC(C)C=O` (stereo not drawn) [2-methylvaleraldehyde], at Gox1615, the “Specific Activity” value was determined as 13.4 U/mg.

As to `CC(=O)C=CC(C)C` [5-methyl-3-hexen-2-one], the “Specific Activity” value at Gox1615 was found to be 0.3 U/mg.

Take `C=C(C)[C@H]1CC=C(C)C(=O)C1` [(+)-Carvone]: the “Specific Activity” value on Gox0502 is 8.0 U/mg; at Gox2107 it was below 0.1 U/mg.

For the molecule `N#CC1=C(C#N)C(=O)C(Cl)=C(Cl)C1=O` [DDQ], the “Specific Activity” value was below 0.1 U/mg at Gox0502 and 26.5 U/mg on Gox2107.

With `NC(=O)C1=CN([C@@H]2O[C@H](COP(=O)(O)OP(=O)(O)OC[C@H]3O[C@@H](n4cnc5c(N)ncnc54)[C@H](O)[C@@H]3O)[C@@H](O)[C@H]2O)C=CC1` [NADH], the “decrease in activity with NADH” value at Gox2107 (Gox2107, NADH compared with the preferred NADPH (data not shown)) turned out to be 7.5 fold.

On to `CCCCCCCCC=O` [Nonal], for which the “Specific Activity” value is 9.3 U/mg on Gox1615 and 4.4 U/mg on Gox0313.

Take `CC=O` [acetaldehyde]: the “Specific Activity” value on Gox0313 stood at 61.0 U/mg.

In the case of `CC(=O)C(C)O` (stereo not drawn) [acetoin], the “reduction by Gox0644 (result in words)” value on Gox0644 was “not reduced”. Besides, the “Specific Activity” value on Gox0313 was 10.5 U/mg.

`CC(C)=O` [acetone]: the “reduction by Gox0644 (result in words)” value at Gox0644 was “not reduced”.

Turning to `CC(=O)CC(C)=O` [acetylacetone], at Gox0644, the “reduction by Gox0644 (result in words)” value was “not reduced”.

Turning to `O=Cc1ccccc1` [benzaldehyde], the entries for the “Specific Activity” value on Gox1615 and at Gox0313 were 12.2 U/mg and 9.4 U/mg, respectively.

Turning to `O=C(C(=O)c1ccccc1)c1ccccc1` [benzil], the “Specific Activity” value at Gox0644 amounted to 14.0 U/mg; on Gox0313, 0.1 U/mg.

For `CCCC=O` [butyraldehyde], the “Specific Activity” value was 14 U/mg on Gox1615 and 8.5 U/mg at Gox0313.

`O=CC=Cc1ccccc1` [cinnamaldehyde]: at Gox2684, the “Specific Activities” value was found to be 0.4 U/mg. Moreover, the “Specific Activity” value on Gox0313 is 7.0 U/mg.

In the case of `CCCCCCCCCC=O` [decanal], the “Specific Activity” value stood at 10.5 U/mg on Gox1615 and 18.8 U/mg at Gox0313.

With `CCCCCCCCCCCC=O` [dodecanal], the “Specific Activity” value was determined as 15.6 U/mg at Gox1615 and 2.4 U/mg on Gox0313.

For `O=CCCCC=O` [glutaraldehyde], the “Specific Activity” value on Gox1615 is recorded as 13.5 U/mg.

As for `O=CCO` [glycolaldehyde], the entries for the “Specific Activity” value on Gox1615 and at Gox0313 were 4.1 U/mg and 37.5 U/mg, respectively.

In the case of `O=CC=O` [glyoxal], the “Specific Activity” value was found to be 1.1 U/mg on Gox0644 and 5 U/mg on Gox1615.

As for `O=CC(=O)O` [glyoxalate], the “Specific Activity” value at Gox0644 worked out at 1.2 U/mg.

`CCCCCCC=O` [heptanal]: the “Specific Activity” value at Gox1615 came out at 15.5 U/mg; at Gox0313, 8.6 U/mg.

For `CCCCCC=O` [hexanal], the “Specific Activity” value came out at 10.3 U/mg on Gox1615 and 6.0 U/mg on Gox0313.

Regarding `O=CCCc1ccccc1` [hydrocinnamaldehyde], the “Specific Activities” value at Gox2684 was found to be 1.9 U/mg. The “Specific Activity” value on Gox0313 was 32.1 U/mg.

On to `CC(C)CC=O` [isovaleraldehyde], for which, at Gox1615, the “Specific Activity” value stood at 12 U/mg.

Turning to `Cc1cccc(C=O)c1` [m-toluylaldehyde], on Gox1615, the “Specific Activity” value is 1.5 U/mg.

For the molecule `Cc1ccccc1C=O` [o-toluylaldehyde], the “Specific Activity” value at Gox1615 is on record as 0.8 U/mg.

With `CCCCCCCC=O` [octanal], the figures for the “Specific Activity” value on Gox1615 and on Gox0313 were 5.3 U/mg and 1.5 U/mg, respectively.

On to `Cc1ccc(C=O)cc1` [p-toluylaldehyde], for which the “Specific Activity” value turned out to be 2.3 U/mg at Gox1615 and 3.3 U/mg at Gox0313.

For the molecule `O=CCc1ccccc1` [phenylacetaldehyde], on Gox1615, the “Specific Activity” value was 6.5 U/mg.

In the case of `CCC=O` [propionaldehyde], the “Specific Activity” value at Gox1615 came to 8.4 U/mg; on Gox0313, 15.0 U/mg.

Turning to `CCCCCCCCCCC=O` [undecylaldehyde], the “Specific Activity” value on Gox1615 was 7.5 U/mg; on Gox0313, 8.5 U/mg.

Turning to `CCCCC=O` [valeraldehyde], the “Specific Activity” value on Gox1615 was found to be 15.1 U/mg; at Gox0313, 8.9 U/mg.

For glucose, at Gox0313, the “Specific Activity” value is 4.7 U/mg.

On to mannose, for which, at Gox0313, the “Specific Activity” value is given as 9.7 U/mg.
